Here are results for twelve compounds from PMC9862305 (Plants, 2023).

Converted amounts (≈) assume the structure as drawn. Where two headings read alike, the source gives them in different places. Bounds are passed on as bounds.

The target in experiment [1] is T1, Butyrylcholinesterase from equine serum (Equus caballus, UniProt P81908).
T1 construct: using BChE from equine serum (lyophilized powder ≥ 500 units/mg protein); purchased Sigma-Aldrich; host or cells: equine serum
As to the kind of experiment: biochemical. Here is the method:
(§1) The cholinesterase inhibitory potentials of the isolated compounds were evaluated via a spectrophotometric approach, which was adapted by Ellman’s method. […] Enzyme inhibition is a beneficial approach in order to evaluate the pharmacological potential of herbal remedies and pure substances. The inhibition of the AChE and BChE enzymes has been linked to the alleviation of symptoms associated with memory impairment in AD [10]. […] Methoxylation may decrease or increase activity depending on the type of flavonoids (flavones, flavanones, or isoflavones). […] Moreover, the hydrogenation of the double bond next to the carbonyl carbon in the structure of flavanones also decreases their affinity for cholinesterase inhibitory activity. However, there are some exceptions to the aforementioned observation of structure–activity relationship in the literature.
(§2) Acetylcholinesterase (AchE) from Electrophorus electricus (electrical eels, type VI-S, 200–1000 unit/mg), Butyrylcholinesterase from equine serum (lyophilized powder ≥ 500 units/mg protein), substrate acetylthiocholine iodide (ATCI), S-butyrylthiocholine iodide (BTCI), sodium phosphate monobasic, and sodium phosphate dibasic were purchased from Sigma-Aldrich (St. Louis, MO, USA). The coloring agent 5,5-dithio-bis-[2-nitrobenzoic acid] (DTNB), and β-sitosterol were obtained from Acros Organics (Acros Organics, NJ, USA). […] Silica gel (Kieselgel 60, 230–400 mesh atm) was purchased from Merck (Darmstadt, Germany). The solvents were of analytical grade and used as received.
(§3) Each run was carried out in triplicate on three consecutive days. Anti-BChE assays were performed using the same procedures described above but using BChE from equine serum (lyophilized powder ≥ 500 units/mg protein) instead of AChE and BTCI instead of ACTI. The final absorbance of each tested sample was calculated by subtracting the absorbance of their respective blank without enzyme addition. […] Then, the IC50 values of all tested samples and standards were calculated from the curve of the % inhibition versus concentration. (1) % Inhibition=Abs −ve control−Abs test sample/Abs −ve control×100

Experiment [2] addresses T2, Acetylcholinesterase (AChE) from Electrophorus electricus (Electrophorus electricus, UniProt O42275).
T2 construct: purchased Sigma-Aldrich type VI-S (catalogue number not given)
As to the kind of experiment: biochemical. The procedure:
as §1, §2, §3

Experiment [3] has as its system BChE. The conditions noted are these: cited from earlier work.
The test system of experiment [4] is AChE. The conditions noted are these: cited from earlier work; for IC50 (AChE inhibitory activity): individual compound.
[5] abbreviates: isolated compounds, Table 4, read-out: AChE (IC50).
The mark [6] stands for this setting: read-out: AChE (IC50) µg/mL (converted).
The mark [7] stands for this setting: luteolin isolated from Globularia meridionalis.
Setting [8] is: BChE (IC50) µM, isolated compounds, Table 4.
Setting [9] is: BChE (IC50) µg/mL, isolated compounds, Table 4.
Where [10] appears, read: AChE (IC50) µM, isolated compounds, Table 4.
[11] abbreviates: AChE (IC50) µg/mL, isolated compounds, Table 4.

T2 sequence (O42275 24-633): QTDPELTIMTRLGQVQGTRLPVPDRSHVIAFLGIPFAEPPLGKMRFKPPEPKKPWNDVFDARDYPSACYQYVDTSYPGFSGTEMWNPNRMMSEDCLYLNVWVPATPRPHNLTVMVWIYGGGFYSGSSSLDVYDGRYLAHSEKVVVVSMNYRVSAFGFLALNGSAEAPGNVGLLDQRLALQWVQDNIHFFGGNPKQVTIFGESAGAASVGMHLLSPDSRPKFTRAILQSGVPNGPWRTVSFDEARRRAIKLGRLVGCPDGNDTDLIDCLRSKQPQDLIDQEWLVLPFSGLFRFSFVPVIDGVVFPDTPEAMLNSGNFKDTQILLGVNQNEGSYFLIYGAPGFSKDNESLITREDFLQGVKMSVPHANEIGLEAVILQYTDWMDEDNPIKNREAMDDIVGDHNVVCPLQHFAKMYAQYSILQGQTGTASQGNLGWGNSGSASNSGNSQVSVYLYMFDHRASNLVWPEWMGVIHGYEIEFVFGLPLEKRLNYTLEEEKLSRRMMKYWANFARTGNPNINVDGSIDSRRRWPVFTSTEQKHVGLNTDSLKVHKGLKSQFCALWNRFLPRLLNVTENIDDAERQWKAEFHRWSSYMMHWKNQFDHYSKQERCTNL
T1 sequence (P81908 whole entry): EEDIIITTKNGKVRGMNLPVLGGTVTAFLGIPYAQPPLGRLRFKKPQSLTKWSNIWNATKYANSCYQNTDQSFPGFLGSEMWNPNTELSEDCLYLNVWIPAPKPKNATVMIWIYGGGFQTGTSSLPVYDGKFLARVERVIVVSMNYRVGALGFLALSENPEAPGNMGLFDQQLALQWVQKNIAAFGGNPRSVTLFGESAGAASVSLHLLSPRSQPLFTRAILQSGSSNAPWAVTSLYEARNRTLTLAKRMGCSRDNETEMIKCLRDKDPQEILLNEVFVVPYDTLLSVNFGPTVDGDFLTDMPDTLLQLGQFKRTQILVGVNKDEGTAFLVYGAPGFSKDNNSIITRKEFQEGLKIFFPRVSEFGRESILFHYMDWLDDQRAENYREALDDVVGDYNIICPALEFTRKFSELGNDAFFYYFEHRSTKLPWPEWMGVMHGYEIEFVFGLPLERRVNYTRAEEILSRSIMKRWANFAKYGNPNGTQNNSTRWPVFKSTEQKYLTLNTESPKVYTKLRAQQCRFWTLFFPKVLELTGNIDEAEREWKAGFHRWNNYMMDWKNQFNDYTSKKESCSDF

Regarding `CCCCCCCCCCCCCCCCCCCCOC(=O)CCCCCCCCCCCCCCCCCCC` [Compound 1, Arachidyl arachidate], the figures for the IC50 in experiment [1] (read-out: BChE (IC50) µg/mL), in experiment [2] (setting [5]) and in experiment [2] (setting [6]) were above 253 µM, 248.6 ± 2.24 µM and 249 µM, respectively.
Regarding `O=c1cc(-c2ccc(O)c(O)c2)oc2cc(O)cc(O)c12` [Compound 2, Luteolin], the “IC50 for BuChE” value in experiment [3] (setting [7]) is on record as 37.2 ± 0.5 µg/mL. In addition, the “IC50 for AChE” value in experiment [4] (setting [7]) is given as 25.2 ± 0.4 µg/mL. In addition, the IC50 in experiment [4] (luteolin isolated from Rhizoma drynariae, read-out: AChE inhibition potential) was 17.3 ± 0.23 µM; in experiment [1] (setting [8]), 46.2 ± 2.2 µM; in experiment [1] (setting [9]) it was 46.2 µM; in experiment [2] (setting [10]), 20.5 ± 1.1 µM; in experiment [2] (setting [11]), 20.5 µM.
Regarding `CC[C@H](CC[C@@H](C)[C@H]1CC[C@H]2[C@@H]3CC=C4C[C@@H](O)CC[C@]4(C)[C@H]3CC[C@]12C)C(C)C` [Compound 3, β-sitosterol], the “IC50 (AChE inhibitory activity)” value in experiment [4] was 55 µg/mL (≈ 133 µM). Further, the IC50 is 157 ± 7.26 µM in experiment [1] (setting [8]), 157 µM in experiment [1] (setting [9]), 137 ± 8.66 µM in experiment [2] (setting [10]) and 137 µM in experiment [2] (setting [11]).
On to `CC[C@H](/C=C/[C@@H](C)[C@H]1CC[C@H]2[C@@H]3CC=C4C[C@@H](O)CC[C@]4(C)[C@H]3CC[C@]12C)C(C)C` [Compound 4, Stigmasterol], for which, in experiment [4], the IC50 (AChE inhibitory activity) is 63 µg/mL (≈ 153 µM).
As to `O=C(O)/C=C/c1ccccc1` [Compound 5, Cinnamic acid], the IC50 in experiment [1] (setting [8]) is 373 ± 16.4 µM; in experiment [1] (setting [9]) it was 373 µM.
As for `O=C(O)C=Cc1ccc(O)cc1` [Compound 6, 4-Hydroxycinnamic acid], the IC50 in experiment [1] (setting [8]) was 409 ± 14.8 µM; in experiment [1] (setting [9]), 409 µM; in experiment [2] (setting [10]) it was 43.4 ± 0.61 µM; in experiment [2] (setting [11]), 43.4 µM.
With `O=Cc1ccc(CO)o1` [Compound 7], the IC50 in experiment [1] (read-out: BChE (IC50) µg/mL) is above 793 µM; in experiment [2] (setting [5]), 158 ± 3.49 µM; in experiment [2] (setting [6]), 158 µM.
As to `COc1ccc(-c2cc(=O)c3c(O)cc(O[C@@H]4O[C@H](CO)[C@H](O)[C@H](O)[C@H]4O)cc3o2)cc1` [acacetin-7-O-beta-D-galactopyranoside], the IC50 in experiment [4] (read-out: IC50) was 6.7 µM.
For `COc1ccc(-c2cc(=O)c3c(O)cc(O)cc3o2)cc1` [acacetin], the IC50 in experiment [4] (read-out: IC50) was 65.3 µM.
As for `O=c1cc(-c2ccc(O)cc2)oc2cc(O)cc(O)c12` [apigenin], the IC50 in experiment [4] (read-out: IC50 (AChE)) was 34.4 ± 2.41 µM.
Turning to `O=c1cc(-c2ccccc2)oc2cc(O)c(O)c(O)c12` [baicalein], in experiment [4] (read-out: IC50 (AChE)), the IC50 is 46 ± 3.44 µM.
Regarding Omifoate A [reference compound], the “IC50 for BChE” value in experiment [3] is 9.07 µg/mL. In addition, the “IC50 for AChE” value in experiment [4] is 6.51 µg/mL.
